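96-well plates; 48 h exposure; 5 concentrations. Endpoints by linear interpolation between flanking doses. Not reached: highest tested concentration assigned. Here, GI50 denotes the concentration required for 50% inhibition of growth.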 Activity calls are given as the source filed them. Cut-off read from the data, not from the text of the source: active = GI50 up to about 1.1 µM and inactive = higher.
What was measured:
Test in all cases: growth of human tumour cells (NCI), 48 h
COLO 205 = system: COLO 205
HL-60 = system: HL-60
HOP-92 = system: HOP-92
MOLT-4 = system: MOLT-4
Malme-3M = system: Malme-3M
NCI-H226 = system: NCI-H226
OVCAR-3 = system: OVCAR-3
OVCAR-8 = system: OVCAR-8
SF-295 = system: SF-295
SK-MEL-28 = system: SK-MEL-28
SK-MEL-2 = system: SK-MEL-2
SK-OV-3 = system: SK-OV-3
SNB-75 = system: SNB-75
SW-620 = system: SW-620
A549 = system: A549
HOP-62 = system: HOP-62
OVCAR-4 = system: OVCAR-4

Row | Compound | GI50 (COLO 205) | GI50 (HL-60) | GI50 (HOP-92) | GI50 (MOLT-4) | GI50 (Malme-3M) | GI50 (NCI-H226) | GI50 (OVCAR-3) | GI50 (OVCAR-8) | GI50 (SF-295) | GI50 (SK-MEL-28) | GI50 (SK-MEL-2) | GI50 (SK-OV-3) | GI50 (SNB-75) | GI50 (SW-620) | GI50 (A549) | GI50 (HOP-62) | GI50 (OVCAR-4)
1 | COC1(OC)c2ccccc2C2(O)c3ccccc3C(=O)C12 (centres undefined) | 13.4 µM (inactive) | 13.5 µM (inactive) | 46.6 µM (inactive) | 10.9 µM (inactive) | 38 µM (inactive) | 27 µM (inactive) | 28.8 µM (inactive) | 39.4 µM (inactive) | 54 µM (inactive) | > 100 µM (inactive) | 38.1 µM (inactive) | 70.1 µM (inactive) | 29.3 µM (inactive) | 71 µM (inactive) | – | – | –
2 | Nc1ccc(C(=O)N/C(=C\c2ccc3c(c2)OCO3)c2nc3ccc4c(c3[nH]2)C(=O)c2ccccc2C4=O)cc1 | 52.6 µM (inactive) | – | 17.5 µM (inactive) | 4.75 µM (inactive) | 61.8 µM (inactive) | – | 32.9 µM (inactive) | 29.6 µM (inactive) | 41.7 µM (inactive) | 33.1 µM (inactive) | 21.1 µM (inactive) | 23.1 µM (inactive) | 19.9 µM (inactive) | 27.2 µM (inactive) | 21.1 µM (inactive) | 36.8 µM (inactive) | 50.5 µM (inactive)
3 | O=C(Nc1ccccc1)c1ccc(Cl)c([N+](=O)[O-])c1 | 28.2 µM (inactive) | – | – | 3.85 µM (inactive) | 20.5 µM (inactive) | 25.2 µM (inactive) | 19.1 µM (inactive) | 9.33 µM (inactive) | 15.3 µM (inactive) | 22.4 µM (inactive) | 13.2 µM (inactive) | 23.6 µM (inactive) | 13.8 µM (inactive) | 4.85 µM (inactive) | 20.2 µM (inactive) | 32.7 µM (inactive) | –
4 | NCc1c(C(N)=O)ncn1Cc1ccccc1 | > 100 µM (inactive) | > 100 µM (inactive) | 65.9 µM (inactive) | > 100 µM (inactive) | – | – | > 100 µM (inactive) | > 100 µM (inactive) | > 100 µM (inactive) | > 100 µM (inactive) | – | > 100 µM (inactive) | > 100 µM (inactive) | > 100 µM (inactive) | > 100 µM (inactive) | > 100 µM (inactive) | > 100 µM (inactive)
5 | CC(C)(C)c1cc(O)c2c(c1O)C(=O)CCC2 | 73.8 µM (inactive) | 20.2 µM (inactive) | 2.69 µM (inactive) | 23.9 µM (inactive) | – | – | 25.6 µM (inactive) | 36.7 µM (inactive) | 30.2 µM (inactive) | 42.6 µM (inactive) | – | 40.5 µM (inactive) | 42.4 µM (inactive) | 57.8 µM (inactive) | 35.9 µM (inactive) | 22.8 µM (inactive) | 30.2 µM (inactive)
6 | CC(=O)NNc1nc(C)c(C(/C=C/c2ccc(Cl)cc2)=N/NC(=O)C[N+](C)(C)C)s1 | > 100 µM (inactive) | > 100 µM (inactive) | > 100 µM (inactive) | > 100 µM (inactive) | > 100 µM (inactive) | > 100 µM (inactive) | > 100 µM (inactive) | – | > 100 µM (inactive) | > 100 µM (inactive) | > 100 µM (inactive) | > 100 µM (inactive) | > 100 µM (inactive) | > 100 µM (inactive) | > 100 µM (inactive) | – | > 100 µM (inactive)
7 | Nc1nc(N)c(-c2ccccc2)c(C(=O)Nc2nccs2)n1 | > 100 µM (inactive) | > 100 µM (inactive) | > 100 µM (inactive) | > 100 µM (inactive) | > 100 µM (inactive) | > 100 µM (inactive) | > 100 µM (inactive) | > 100 µM (inactive) | > 100 µM (inactive) | > 100 µM (inactive) | > 100 µM (inactive) | > 100 µM (inactive) | – | > 100 µM (inactive) | > 100 µM (inactive) | > 100 µM (inactive) | > 100 µM (inactive)
8 | O=C(NN1C(=O)CS(=O)(=O)C1c1cccc(F)c1)c1ccncc1 (centres undefined) | > 100 µM (inactive) | > 100 µM (inactive) | > 100 µM (inactive) | > 100 µM (inactive) | > 100 µM (inactive) | > 100 µM (inactive) | – | – | > 100 µM (inactive) | > 100 µM (inactive) | > 100 µM (inactive) | > 100 µM (inactive) | 83.8 µM (inactive) | > 100 µM (inactive) | > 100 µM (inactive) | > 100 µM (inactive) | > 100 µM (inactive)
9 | Cc1ccc(Nc2nc(C)c(C(/C=C/c3ccc4c(c3)OCO4)=N/Nc3ccc([N+](=O)[O-])cc3[N+](=O)[O-])s2)c([N+](=O)[O-])c1 | 56.5 µM (inactive) | 21.7 µM (inactive) | – | 21.7 µM (inactive) | 65.3 µM (inactive) | 25 µM (inactive) | 35.2 µM (inactive) | 70.3 µM (inactive) | 65 µM (inactive) | > 100 µM (inactive) | 28 µM (inactive) | 26.7 µM (inactive) | 56.8 µM (inactive) | 45 µM (inactive) | 45.8 µM (inactive) | 32.8 µM (inactive) | 56.6 µM (inactive)
10 | COc1cc(C(C)c2cc3c(cc2OCCNC(=O)COc2cc4c(cc2C(C)c2cc(OC)c(OC)c(OC)c2)OCO4)OCO3)cc(OC)c1OC (centres undefined) | 48.2 µM (inactive) | > 100 µM (inactive) | – | 7.13 µM (inactive) | > 100 µM (inactive) | > 100 µM (inactive) | 67.3 µM (inactive) | 49.5 µM (inactive) | > 100 µM (inactive) | > 100 µM (inactive) | > 100 µM (inactive) | – | 3.09 µM (inactive) | > 100 µM (inactive) | > 100 µM (inactive) | 58.7 µM (inactive) | > 100 µM (inactive)
11 | COC(=O)C1=C(C(=O)OC)C2=S(SC3=C2CCCC3)S1 (centres undefined) | 23.4 µM (inactive) | 9.48 µM (inactive) | 6.05 µM (inactive) | 12 µM (inactive) | 20.1 µM (inactive) | – | 16.4 µM (inactive) | 12.9 µM (inactive) | 46.1 µM (inactive) | 29.7 µM (inactive) | 23.1 µM (inactive) | > 100 µM (inactive) | 12.1 µM (inactive) | 0.467 µM (active) | 36.1 µM (inactive) | > 100 µM (inactive) | 19 µM (inactive)
12 | CCC(=O)OC[n+]1ccc2c(C)c3[nH]c4ccc(OC)cc4c3c(C)c2c1 | 0.0906 µM (active) | 1.66 µM (inactive) | 0.0556 µM (active) | 0.0142 µM (active) | 0.627 µM (active) | 0.348 µM (active) | 1.34 µM (inactive) | 0.0755 µM (active) | 0.0738 µM (active) | 0.759 µM (active) | 0.291 µM (active) | – | 0.434 µM (active) | 0.0288 µM (active) | 0.135 µM (active) | – | 0.0865 µM (active)
13 | COc1ccc(/C=C/C(=O)C(C)(C)CN2CCCCC2)cc1 | 15.6 µM (inactive) | 18.6 µM (inactive) | – | 21.8 µM (inactive) | 22.2 µM (inactive) | 20.9 µM (inactive) | 18.2 µM (inactive) | 19 µM (inactive) | 38.1 µM (inactive) | 24.2 µM (inactive) | 16.3 µM (inactive) | 21.5 µM (inactive) | 12.4 µM (inactive) | 1.13 µM (inactive) | 26.8 µM (inactive) | 32.2 µM (inactive) | 7.36 µM (inactive)
14 | CC1OC(n2ccc3ccc([N+](=O)[O-])cc32)C(O)C(O)C1O (centres undefined) | > 100 µM (inactive) | > 100 µM (inactive) | > 100 µM (inactive) | > 100 µM (inactive) | > 100 µM (inactive) | > 100 µM (inactive) | > 100 µM (inactive) | > 100 µM (inactive) | > 100 µM (inactive) | > 100 µM (inactive) | > 100 µM (inactive) | > 100 µM (inactive) | > 100 µM (inactive) | > 100 µM (inactive) | > 100 µM (inactive) | > 100 µM (inactive) | > 100 µM (inactive)
15 | CC1=CCC[C@@]2(C)C(CC[C@@H]2C(C)/C=C/C(C)C)c2ccc(cc2C(=O)O)C[C@@H](O)CC1 (some centres undefined) | – | 9.79 µM (inactive) | 14.4 µM (inactive) | 11.6 µM (inactive) | 15.7 µM (inactive) | 18.5 µM (inactive) | 13.7 µM (inactive) | 15.2 µM (inactive) | 9.27 µM (inactive) | 14.7 µM (inactive) | 17.1 µM (inactive) | 18.1 µM (inactive) | 13.8 µM (inactive) | 14.9 µM (inactive) | 6.14 µM (inactive) | 20 µM (inactive) | 12.1 µM (inactive)
16 | CC(=O)N(C)c1ccc2c(ccc[n+]2[O-])c1[N+](=O)[O-] | > 100 µM (inactive) | > 100 µM (inactive) | – | > 100 µM (inactive) | > 100 µM (inactive) | > 100 µM (inactive) | > 100 µM (inactive) | > 100 µM (inactive) | > 100 µM (inactive) | > 100 µM (inactive) | > 100 µM (inactive) | – | > 100 µM (inactive) | > 100 µM (inactive) | > 100 µM (inactive) | > 100 µM (inactive) | > 100 µM (inactive)
17 | Cc1ccc(C(=O)Nc2ccccc2)cc1/N=N/N(C)C | – | – | > 100 µM (inactive) | – | – | – | > 100 µM (inactive) | > 100 µM (inactive) | > 100 µM (inactive) | > 100 µM (inactive) | > 100 µM (inactive) | – | – | > 100 µM (inactive) | > 100 µM (inactive) | > 100 µM (inactive) | > 100 µM (inactive)
18 | CCCCCCCCCCCCCCCCCC(=O)NCC(COP(=O)([O-])OCC[N+](C)(C)C)OC (centres undefined) | 1.48 µM (inactive) | 1.16 µM (inactive) | 2.64 µM (inactive) | 1.76 µM (inactive) | 8.59 µM (inactive) | 3.44 µM (inactive) | 3.37 µM (inactive) | 10.9 µM (inactive) | 3.46 µM (inactive) | 16.6 µM (inactive) | – | 15.2 µM (inactive) | 5 µM (inactive) | 10.9 µM (inactive) | 10.3 µM (inactive) | 2.87 µM (inactive) | 3.6 µM (inactive)

Source: ChEMBL document CHEMBL1201862, “PubChem BioAssay data set” (2004)
